Assay results reported in patent US20240150293A1, “SPIROCYCLOHEXANE DERIVATIVES, PHARMACEUTICAL COMPOSITIONS CONTAINING THEM AND THEIR USES AS ANTI-APOPTOTIC INHIBITORS” (LES LABORATOIRES SERVIER, priority 2021, published 2024).

Columns and labels:
[1] = biological target: Cy5-labelled Mcl1 (amino acids 171-321) C286S protein (UniProtKB Q07820) (Homo sapiens (Human), UniProt Q07820, C286S); assay: Inhibition of Mcl-1 by the fluorescence quenching assay (Example A, Method B); type: binding
Method in brief: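 Eleven-point compound series incubated 2 h at room temperature with 1 nM Cy5-tagged protein and quencher-labelled PUMA peptide at 10, 20 or 400 nM in HEPES/NaCl/Tween 20, pH 7.4, 5% DMSO. IC50 for 50% fluorescence increase by 4-parameter fit, then Ki derived (complete cKi or estimated eKi).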

NCI-H929 cell lines = assay: In vitro cytotoxicity, CellTiter-Glo (CTG) assay (Example B, Method B); type: cell-based; conditions: Homo sapiens, NCI-H929, 48 h, NCI-H929 cells, 48 h incubation, read-out: C50
Method in brief: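 ATP-based luminescence (CellTiter-Glo) after 48 h incubation at 37° C., 5% CO2 gave NCI-H929 viability. Eleven concentrations tested, highest final 30 μM, dispensed acoustically from 10 mM DMSO stocks; C50 defined as concentration reaching 50% viability.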

Sequence of Cy5-labelled Mcl1 (amino acids 171-321) C286S protein (Q07820 171-321 C286S): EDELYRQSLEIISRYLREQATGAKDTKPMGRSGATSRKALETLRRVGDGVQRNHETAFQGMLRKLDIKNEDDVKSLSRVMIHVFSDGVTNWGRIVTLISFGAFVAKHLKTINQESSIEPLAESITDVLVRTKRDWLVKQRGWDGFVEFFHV

Row | Ki [1] | Compound | IC50 (NCI-H929 cell lines)
1 | 0.228 nM | C[C@@H](COc1ccnc2c1[C@H](C)CCC2)C[C@H]1Cc2cc3c(cc2[C@]12CC[C@@](Nc1cccc(Cl)c1)(C(=O)O)CC2)OC(F)(F)O3 [Example 849, (1r,4S,6′S)-4-(3-chloroanilino)-2′,2′-difluoro-6′-[(2R)-2-methyl-3-{[(5R)-5-methyl-5,6,7,8-tetrahydroquinolin-4-yl]oxy}propyl]-6′,7′-dihydro-2′H-spiro[cyclohexane-1,5′-indeno[5,6-d][1,3]dioxole]-4-carboxylic acid] | 90.5 nM
2 | 0.0173 nM | C[C@@H](COc1ccnc2c1[C@H](C)CCC2)C[C@H]1Cc2cc3c(cc2[C@]12CC[C@@](Nc1cccc(Cl)c1)(C(=O)O)CC2)OCC3 [Example 850, (1r,4S,6′S)-4-(3-chloroanilino)-6′-[(2R)-2-methyl-3-{[(5R)-5-methyl-5,6,7,8-tetrahydroquinolin-4-yl]oxy}propyl]-2′,3′,5′,6′-tetrahydrospiro[cyclohexane-1,7′-indeno[5,6-b]furan]-4-carboxylic acid] | 50.9 nM
3 | 0.0256 nM | C[C@@H](COc1ccnc2c1[C@H](C)CCC2)C[C@H]1Cc2cc3c(cc2[C@]12CC[C@@](Nc1cccc(Cl)c1)(C(=O)O)CC2)CCO3 [Example 851, (1r,4S,6′S)-4-(3-chloroanilino)-6′-[(2R)-2-methyl-3-{[(5R)-5-methyl-5,6,7,8-tetrahydroquinolin-4-yl]oxy}propyl]-2′,3′,6′,7′-tetrahydrospiro[cyclohexane-1,5′-indeno[5,6-b]furan]-4-carboxylic acid] | 34.9 nM
4 | 0.0896 nM | C[C@@H](COc1ccnc2c1[C@H](C)CCC2)C[C@H]1Cc2cc3c(cc2[C@]12CC[C@@](Nc1cccc(Cl)c1)(C(=O)O)CC2)CCC3 [Example 852, (1r,2′S,4S)-4-(3-chloroanilino)-2′-[(2R)-2-methyl-3-{[(5R)-5-methyl-5,6,7,8-tetrahydroquinolin-4-yl]oxy}propyl]-3′,5′,6′,7′-tetrahydro-2′H-spiro[cyclohexane-1,1′-[s]indacene]-4-carboxylic acid] | 235 nM
5 | 0.0917 nM | Cc1ccc2c(c1)C[C@H](C[C@@H](C)COc1ccnc3c1[C@H](C)CCC3)[C@]21CC[C@](Nc2cccc(Cl)c2)(C(=O)O)CC1 [Example 853, (1r,2′S,4S)-4-(3-chloroanilino)-5′-methyl-2′-[(2R)-2-methyl-3-{[(5R)-5-methyl-5,6,7,8-tetrahydroquinolin-4-yl]oxy}propyl]-2′,3′-dihydrospiro[cyclohexane-1,1′-indene]-4-carboxylic acid] | 137 nM
6 | 0.0509 nM | C[C@@H](COc1ccnc2c1[C@H](C)CCC2)C[C@H]1Cc2ccc(CO)cc2[C@]12CC[C@@](Nc1cccc(Cl)c1)(C(=O)O)CC2 [Example 870, (1r,2′S,4S)-4-(3-chloroanilino)-6′-(hydroxymethyl)-2′-[(2R)-2-methyl-3-{[(5R)-5-methyl-5,6,7,8-tetrahydroquinolin-4-yl]oxy}propyl]-2′,3′-dihydrospiro[cyclohexane-1,1′-indene]-4-carboxylic acid] | 126 nM

The next lines start with the molecule.

Row | Compound | Ki [1] | IC50 (NCI-H929 cell lines)
7 | C[C@@H](COc1ccnc2c1[C@H](C)CCC2)C[C@H]1Cc2ccc(COC3CCCO3)cc2[C@]12CC[C@@](Nc1cccc(Cl)c1)(C(=O)O)CC2 (stereo partly drawn) [Example 872, (1r,2′S,4S)-4-(3-chloroanilino)-2′-[(2R)-2-methyl-3-{[(5R)-5-methyl-5,6,7,8-tetrahydroquinolin-4-yl]oxy}propyl]-6′-{[(oxolan-2-yl)oxy]methyl}-2′,3′-dihydrospiro[cyclohexane-1,1′-indene]-4-carboxylic acid] | 0.0505 nM | 52.9 nM
8 | COC[C@H]1C[C@@H]1c1ccc2c(c1)[C@]1(CC[C@@](Nc3cccc(Cl)c3)(C(=O)O)CC1)[C@@H](C[C@@H](C)COc1ccnc3c1[C@H](C)CCC3)C2 [Example 874, (1r,2′S,4S)-4-(3-chloroanilino)-6′-[(1S,2S)-2-(methoxymethyl)cyclopropyl]-2′-[(2R)-2-methyl-3-{[(5R)-5-methyl-5,6,7,8-tetrahydroquinolin-4-yl]oxy}propyl]-2′,3′-dihydrospiro[cyclohexane-1,1′-indene]-4-carboxylic acid] | 0.161 nM | 113 nM
9 | COC[C@@H]1C[C@H]1c1ccc2c(c1)[C@]1(CC[C@@](Nc3cccc(Cl)c3)(C(=O)O)CC1)[C@@H](C[C@@H](C)COc1ccnc3c1[C@H](C)CCC3)C2 [Example 875, (1r,2′S,4S)-4-(3-chloroanilino)-6′-[(1R,2R)-2-(methoxymethyl)cyclopropyl]-2′-[(2R)-2-methyl-3-{[(5R)-5-methyl-5,6,7,8-tetrahydroquinolin-4-yl]oxy}propyl]-2′,3′-dihydrospiro[cyclohexane-1,1′-indene]-4-carboxylic acid] | 0.0843 nM | 59.7 nM
10 | COc1ccccc1-c1ccc2c(c1)[C@]1(CC[C@@](Nc3cccc(Cl)c3)(C(=O)O)CC1)[C@@H](C[C@@H](C)COc1ccnc3c1[C@H](C)CCC3)C2 [Example 876, (1r,2′S,4S)-4-(3-chloroanilino)-6′-(2-methoxyphenyl)-2′-[(2R)-2-methyl-3-{[(5R)-5-methyl-5,6,7,8-tetrahydroquinolin-4-yl]oxy}propyl]-2′,3′-dihydrospiro[cyclohexane-1,1′-indene]-4-carboxylic acid] | 0.399 nM | 307 nM
11 | COc1cccc(-c2ccc3c(c2)[C@]2(CC[C@@](Nc4cccc(Cl)c4)(C(=O)O)CC2)[C@@H](C[C@@H](C)COc2ccnc4c2[C@H](C)CCC4)C3)c1 [Example 877, (1r,2′S,4S)-4-(3-chloroanilino)-6′-(3-methoxyphenyl)-2′-[(2R)-2-methyl-3-{[(5R)-5-methyl-5,6,7,8-tetrahydroquinolin-4-yl]oxy}propyl]-2′,3′-dihydrospiro[cyclohexane-1,1′-indene]-4-carboxylic acid] | 0.642 nM | 505 nM
12 | C[C@@H](COc1ccnc2c1[C@H](C)CCC2)C[C@H]1Cc2ccc(-c3ccsc3)cc2[C@]12CC[C@@](Nc1cccc(Cl)c1)(C(=O)O)CC2 [Example 878, (1r,2′S,4S)-4-(3-chloroanilino)-2′-[(2R)-2-methyl-3-{[(5R)-5-methyl-5,6,7,8-tetrahydroquinolin-4-yl]oxy}propyl]-6′-(thiophen-3-yl)-2′,3′-dihydrospiro[cyclohexane-1,1′-indene]-4-carboxylic acid] | 0.386 nM | 1110 nM
13 | C[C@@H](COc1ccnc2c1[C@H](C)CCC2)C[C@@H]1Cc2ccc(-c3ccsc3)cc2[C@]12CC[C@@](Nc1cccc(Cl)c1)(C(=O)O)CC2 [Example 879, (1r,2′R,4R)-4-(3-chloroanilino)-2′-[(2R)-2-methyl-3-{[(5R)-5-methyl-5,6,7,8-tetrahydroquinolin-4-yl]oxy}propyl]-6′-(thiophen-3-yl)-2′,3′-dihydrospiro[cyclohexane-1,1′-indene]-4-carboxylic acid] | 4.06 nM | 1360 nM
14 | C[C@@H](COc1ccnc2c1[C@H](C)CCC2)C[C@@H]1Cc2ccc(-c3ccc[nH]3)cc2[C@]12CC[C@@](Nc1cccc(Cl)c1)(C(=O)O)CC2 [Example 880, (1r,2′R,4R)-4-(3-chloroanilino)-2′-[(2R)-2-methyl-3-{[(5R)-5-methyl-5,6,7,8-tetrahydroquinolin-4-yl]oxy}propyl]-6′-(1H-pyrrol-2-yl)-2′,3′-dihydrospiro[cyclohexane-1,1′-indene]-4-carboxylic acid] | 1.23 nM | 829 nM
15 | C[C@@H](COc1ccnc2c1[C@H](C)CCC2)C[C@H]1Cc2ccc(-c3cccn3C)cc2[C@]12CC[C@@](Nc1cccc(Cl)c1)(C(=O)O)CC2 [Example 881, (1r,2′S,4S)-4-(3-chloroanilino)-2′-[(2R)-2-methyl-3-{[(5R)-5-methyl-5,6,7,8-tetrahydroquinolin-4-yl]oxy}propyl]-6′-(1-methyl-1H-pyrrol-2-yl)-2′,3′-dihydrospiro[cyclohexane-1,1′-indene]-4-carboxylic acid] | 0.154 nM | 153 nM
16 | C[C@@H](COc1ccnc2c1[C@H](C)CCC2)C[C@@H]1Cc2ccc(-c3cc[nH]c3)cc2[C@]12CC[C@@](Nc1cccc(Cl)c1)(C(=O)O)CC2 [Example 882, (1r,2′R,4R)-4-(3-chloroanilino)-2′-[(2R)-2-methyl-3-{[(5R)-5-methyl-5,6,7,8-tetrahydroquinolin-4-yl]oxy}propyl]-6′-(1H-pyrrol-3-yl)-2′,3′-dihydrospiro[cyclohexane-1,1′-indene]-4-carboxylic acid] | 1.84 nM | 1300 nM
17 | C[C@@H](COc1ccnc2c1[C@H](C)CCC2)C[C@H]1Cc2ccc(-c3ccn(C)c3)cc2[C@]12CC[C@@](Nc1cccc(Cl)c1)(C(=O)O)CC2 [Example 883, (1r,2′S,4S)-4-(3-chloroanilino)-2′-[(2R)-2-methyl-3-{[(5R)-5-methyl-5,6,7,8-tetrahydroquinolin-4-yl]oxy}propyl]-6′-(1-methyl-1H-pyrrol-3-yl)-2′,3′-dihydrospiro[cyclohexane-1,1′-indene]-4-carboxylic acid] | 0.246 nM | 133 nM
18 | CC(c1ccc(O)cc1)c1ccc2c(c1)[C@]1(CC[C@@](Nc3cccc(Cl)c3)(C(=O)O)CC1)[C@@H](C[C@@H](C)COc1ccnc3c1[C@H](C)CCC3)C2 (stereo partly drawn) [Example 885, (1r,2′S,4S)-4-(3-chloroanilino)-6′-[1-(4-hydroxyphenyl)ethyl]-2′-[(2R)-2-methyl-3-{[(5R)-5-methyl-5,6,7,8-tetrahydroquinolin-4-yl]oxy}propyl]-2′,3′-dihydrospiro[cyclohexane-1,1′-indene]-4-carboxylic acid] | 2.03 nM | 341 nM
